In patent publication US10287267B2, “Isoquinolin-3-yl carboxamides and preparation and use thereof” (Samumed, LLC, priority 2016, dated 2019):
Like-named read-outs stand apart in the source and are kept apart here.

Legend:
[1] = biological target: recombinant DYRK1A kinase (Homo sapiens (Human), UniProt Q13627); assay: DYRK1A kinase assay (Ser/Thr 18 peptide Z-lyte FRET); type: biochemical; conditions: 30 μM ATP, 1 h room temperature;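 also: Read-out is the coumarin to fluorescein emission ratio, referenced to unphosphorylated (0%) and phosphorylated (100%) Ser/Thr 18 peptide controls, values from dose-response curves by non-linear regression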
[2] = system: SW480 colon carcinoma cells; assay: Cell viability assay (CellTiter-Glo); type: cell-based, human; conditions: for EC50: SW480 cells, CellTiter-Glo, four days incubation; for inhibition at 10 µM: SW480, read-out: percent inhibition at 10 μM
[3] = system: Tau phosphorylation at Ser396 (pSer396); assay: Tau phosphorylation assay (pSer396 ELISA / western blot) in SH-SY5Y cells; type: cell-based, human; conditions: SH-SY5Y cells, overnight (16-18 h) exposure, read-out: pSer396 Tau EC50;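 also: EC50 for reduction of Tau pSer396 in lysed cells, measured by colorimetric ELISA or chemiluminescent western blot, both using the same pSer396 antibody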
Experimental: Two days before treatment, cells were seeded onto 96 well plates at 5×10^4 cells/well.
Wells were visually checked for cell death or change in morphology and supernatants were tested for cytotoxicity by measurement of lactate dehydrogenase release (LDH, CytoToxOne kit, Promega) if necessary.
Cells were lysed with RIPA buffer complemented with phosphatase and protease inhibitors then lysates were spun down at 12,000 g for 10 min to remove any cellular debris. Lysates are then either directly tested for pSer396 by ELISA (Life Technology, Kit KHB7031) or loaded on NuPage Bis-Tris gels for western blot analysis. Colorimetric detection of ELISA signal is performed by Cytation3 plate reader (Biotek) and the chemiluminescence signal for HRP-linked antibodies used in western blotting is detected using a Carestream Image Station. The same pSer396 antibody is used for detection of pTau in both assays.

[4] = system: α-smooth muscle actin (αSMA) positive LL29 cells; assay: Inhibition of fibrotic process: αSMA in TGF-β1 treated primary human fibroblasts from IPF patients; type: cell-based; conditions: for EC50: Table 8, LL29 fibroblasts from IPF patients, TGF-β1 20 ng/mL, 4 days; for inhibition at 10 µM: read-out: percent value in parentheses beside EC50 >10 μM;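 as to all read-outs here: controls were TGF-β1 stimulated wells with DMSO vehicle (positive) and cells given DMSO alone (negative), cultured in F12 medium with 1% fetal bovine serum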
IL-6 = IL-6 inhibition in LPS-stimulated human peripheral blood mononuclear cells (HTRF); type: cell-based; conditions: for EC50: Table 9, huPBMCs, LPS 50 ng/mL, 22 hours, dose-response starting from 10 μM; for inhibition at 10 µM: read-out: percent value in parentheses beside EC50 >10 μM;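 as to all read-outs here: IL-6 detected by HTRF with an XL665- and Cryptate-labelled anti-IL-6 antibody pair, samples run in duplicate, EC50 obtained from a four-parameter Levenberg-Marquardt curve fit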
Experimental: After 22 hour incubation, a mixture of anti-IL6 XL665 and anti-IL-6 Cryptate diluted in reconstitution buffer (Catalog #62IL6PEC, Cisbio Inc., Bedford, Mass.) was added to each well. […] All samples were processed in duplicate. […] EC50 was determined using software generated by Dotmatics Limited (Windhill Bishops Stortford Herts, UK) using the Levenberg-Marquardt 4 parameter fitting procedure with finite different gradients.

recombinant GSK3β kinase = recombinant GSK3β kinase (Homo sapiens (Human), UniProt P49841); assay: GSK3β kinase assay (Ser/Thr 09 peptide Z-lyte FRET); type: biochemical; conditions: 46 μM ATP, 1 h room temperature;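 also: kinase activity read as coumarin to fluorescein emission ratio, 11-point threefold dilutions from 10 µM to 0.0003 µM in duplicate, unphosphorylated and phosphorylated peptide as 0% and 100% controls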
Chain of recombinant GSK3β kinase (P49841 whole entry): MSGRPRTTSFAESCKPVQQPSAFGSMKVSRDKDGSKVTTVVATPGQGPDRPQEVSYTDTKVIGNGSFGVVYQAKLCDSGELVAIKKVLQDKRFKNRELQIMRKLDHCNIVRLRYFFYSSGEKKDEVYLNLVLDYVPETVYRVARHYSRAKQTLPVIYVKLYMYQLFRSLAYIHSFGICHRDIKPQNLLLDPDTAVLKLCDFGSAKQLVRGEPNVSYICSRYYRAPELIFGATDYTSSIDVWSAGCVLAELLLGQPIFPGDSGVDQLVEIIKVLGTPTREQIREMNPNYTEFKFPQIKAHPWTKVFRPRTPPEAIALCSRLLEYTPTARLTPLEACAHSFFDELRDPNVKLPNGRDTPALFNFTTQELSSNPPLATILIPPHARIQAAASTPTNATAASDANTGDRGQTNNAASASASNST

[5] = system: Wnt pathway (Sp5-Luc reporter, TCF/LEF binding sites) in SW480 colon carcinoma cells; assay: Screening assay for Wnt activity: Sp5-Luc reporter gene assay; type: cell-based, human; conditions: for EC50: Sp5-Luc reporter, SW480 cells, 36 to 48 hours; for inhibition at 10 µM: SW480, read-out: percent inhibition at 10 μM;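 as to all read-outs here: firefly luciferase luminescence read in stably transduced SW480 cells carrying the Sp5 promoter reporter with eight TCF/LEF sites, compounds given in 0.1% DMSO final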
Experimental: The screening assay for Wnt activity is described as follows.
Following incubation, 15 μl of BriteLite Plus luminescence reagent (Perkin Elmer) was added to each well of the 384-well assay plates. The plates were placed on an orbital shaker for 2 min and then luminescence was quantified using the Envision (Perkin Elmer) plate reader.

[6] = Homo sapiens, Fibroblast, 96 h, dose-response 10 μM to 0.94 nM

SMILES	EC50 [1]	EC50 ([2]; Homo sapiens, 96 h)	EC50 ([3]; Homo sapiens)	EC50 [4, 6]	EC50 (IL-6; Homo sapiens, PBMC)	EC50 (recombinant GSK3β kinase)	EC50 ([5]; Homo sapiens)	inhibition at 10 µM ([2]; Homo sapiens)	inhibition at 10 µM (IL-6; Homo sapiens, PBMC)	inhibition at 10 µM ([5]; Homo sapiens)	inhibition at 10 µM ([4]; Homo sapiens, Fibroblast)	EC50 [2]	EC50 [3]	EC50 ([4]; dose-response 10 μM to […])	EC50 (IL-6)	EC50 [5]
Cn1ncc(-c2ccc3cnc(NC(=O)C4CCC(F)(F)CC4)cc3c2)c1CN1CCCCC1 [Compound 300, 4,4-Difluoro-N-(6-(1-methyl-5-(piperidin-1-ylmethyl)-1H-pyrazol-4-yl)isoquinolin-3-yl)cyclohexane-1-carboxamide]	8.2 nM	1300 nM	222 nM	511 nM	2740 nM	31 nM	1120 nM									
Cn1cc(-c2ccc3cnc(NC(=O)C4CC5(CCN(CCF)CC5)C4)cc3c2)cn1 [Compound 301, 7-(2-Fluoroethyl)-N-(6-(1-methyl-1H-pyrazol-4-yl)isoquinolin-3-yl)-7-azaspiro[3.5]nonane-2-carboxamide]	2 nM	550 nM	108 nM	4810 nM	393 nM	10 nM	467 nM									
CN(CC(=O)Nc1cc2cc(-c3cnn(C)c3)ccc2cn1)C1CCC1 [Compound 302, 2-(Cyclobutyl(methyl)amino)-N-(6-(1-methyl-1H-pyrazol-4-yl)isoquinolin-3-yl)acetamide]	7.7 nM	> 10000 nM	628 nM	901 nM	7700 nM	38 nM	3650 nM	34.9%								
CCN(CC)CC(=O)Nc1cc2cc(-c3cnn(C)c3)ccc2cn1 [Compound 303, 2-(Diethylamino)-N-(6-(1-methyl-1H-pyrazol-4-yl)isoquinolin-3-yl) acetamide]	8 nM	7800 nM	783 nM	817 nM	5240 nM	89 nM	9830 nM									
[2H]C([2H])([2H])n1cc(-c2ccc3cnc(NC(=O)C4CCN(CCC(F)(F)F)CC4)cc3c2)cn1 [Compound 304, N-(6-(1-(Methyl-d3)-1H-pyrazol-4-yl)isoquinolin-3-yl)-1-(3,3,3-trifluoropropyl)piperidine-4-carboxamide]	2.7 nM	1340 nM	210 nM	150 nM	1140 nM	29 nM	2320 nM									
[2H]C([2H])([2H])n1cc(-c2ccc3cnc(NC(=O)CN4CCCC4)cc3c2)cn1 [Compound 305, N-(6-(1-(Methyl-d3)-1H-pyrazol-4-yl)isoquinolin-3-yl)-2-(pyrrolidin-1-yl) acetamide]	8.2 nM	1650 nM	247 nM	5510 nM	1140 nM	51 nM	1940 nM									
[2H]C([2H])([2H])n1cc(-c2ccc3cnc(NC(=O)CN4CCCCC4)cc3c2)cn1 [Compound 306, N-(6-(1-(Methyl-d3)-1H-pyrazol-4-yl)isoquinolin-3-yl)-2-(piperidin-1-yl) acetamide]	7.2 nM	3200 nM	592 nM	282 nM	2520 nM	66 nM	3700 nM									
Cc1cc(-c2ccc3cnc(NC(=O)C4CCN(CCC(F)(F)F)CC4)cc3c2)on1 [Compound 307, N-(6-(3-Methylisoxazol-5-yl)isoquinolin-3-yl)-1-(3,3,3-trifluoropropyl) piperidine-4-carboxamide]	6220 nM	> 10000 nM	2080 nM	7150 nM	> 10000 nM	5260 nM	> 10000 nM		4.3%	25.9%						
O=C(Nc1cc2cc(-c3cnco3)ccc2cn1)C1CCN(CCC(F)(F)F)CC1 [Compound 308, N-(6-(Oxazol-5-yl)isoquinolin-3-yl)-1-(3,3,3-trifluoropropyl)piperidine-4-carboxamide]	2.4 nM	> 10000 nM	361 nM	> 10000 nM	9230 nM	107 nM	1810 nM	32%			27.6%					
Cc1nnc(-c2ccc3cnc(NC(=O)C4(F)CCN(CC(C)C)CC4)cc3c2)o1 [Compound 309, 4-Fluoro-1-isobutyl-N-(6-(5-methyl-1,3,4-oxadiazol-2-yl)isoquinolin-3-yl) piperidine-4-carboxamide]	34.3 nM	> 10000 nM	1220 nM	14 nM	> 10000 nM	120 nM	> 10000 nM	9.6%	4.5%	43.5%						
Cn1cc(-c2ccc3cnc(NC(=O)C4CCN(CC5(C(F)(F)F)CC5)CC4)cc3c2)cn1 [Compound 310, N-(6-(1-Methyl-1H-pyrazol-4-yl)isoquinolin-3-yl)-1-((1-(trifluoromethyl)cyclopropyl)methyl)piperidine-4-carboxamide]	6.2 nM	5350 nM	628 nM	294 nM	1170 nM	105 nM	1460 nM									
C[C@H](F)CN1CCC(C(=O)Nc2cc3cc(-c4cnn(C)c4)ccc3cn2)CC1 [Compound 311, (S)-1-(2-Fluoropropyl)-N-(6-(1-methyl-1H-pyrazol-4-yl)isoquinolin-3-yl) piperidine-4-carboxamide]	1.9 nM					20 nM						751 nM	163 nM	76 nM	396 nM	578 nM
Cn1cc(-c2ccc3cnc(NC(=O)C(C)(C)F)cc3c2)nn1 [Compound 312, 2-Fluoro-2-methyl-N-(6-(1-methyl-1H-1,2,3-triazol-4-yl)isoquinolin-3-yl) propanamide]	12.7 nM	> 10000 nM	762 nM	> 10000 nM	> 10000 nM	31 nM	> 10000 nM		3.9%	23.8%	36.5%					
C[C@@H](F)CN1CCC(C(=O)Nc2cc3cc(-c4cnn(C)c4)ccc3cn2)CC1 [Compound 313, (R)-1-(2-Fluoropropyl)-N-(6-(1-methyl-1H-pyrazol-4-yl)isoquinolin-3-yl) piperidine-4-carboxamide]	2.5 nM	711 nM	330 nM	105 nM	1010 nM	39 nM	577 nM									
CC(C(=O)Nc1cc2cc(-c3cnn(C)c3)ccc2cn1)N1CCCCC1 (stereo not shown) [Compound 314, N-(6-(1-Methyl-1H-pyrazol-4-yl)isoquinolin-3-yl)-2-(piperidin-1-yl) propanamide]	22.1 nM	1200 nM	128 nM	45 nM	1270 nM	12 nM	859 nM									
[2H]C1([2H])CCC([2H])([2H])N1CC(=O)Nc1cc2cc(-c3cnn(C)c3)ccc2cn1 [Compound 315, N-(6-(1-Methyl-1H-pyrazol-4-yl)isoquinolin-3-yl)-2-(pyrrolidin-1-yl-2,2,5,5-d4)acetamide]	12.3 nM	1250 nM	346 nM	1820 nM	819 nM	44 nM	1590 nM									
CN1CCN(C(=O)Nc2cc3cc(-c4cnn(C)c4)ccc3cn2)CC1 [Compound 316, 4-Methyl-N-(6-(1-methyl-1H-pyrazol-4-yl)isoquinolin-3-yl)piperazine-1-carboxamide]	4.2 nM	2340 nM	8780 nM	1080 nM	395 nM	509 nM	2840 nM									
C[C@@H](C(=O)Nc1cc2cc(-c3cnn(C)c3)ccc2cn1)N1CCCC1 [Compound 317, (S)—N-(6-(1-Methyl-1H-pyrazol-4-yl)isoquinolin-3-yl)-2-(pyrrolidin-1-yl) propanamide]	37 nM	6340 nM	200 nM	174 nM	1900 nM	30 nM	1270 nM									
C[C@H](C(=O)Nc1cc2cc(-c3cnn(C)c3)ccc2cn1)N1CCCC1 [Compound 318, (R)—N-(6-(1-Methyl-1H-pyrazol-4-yl)isoquinolin-3-yl)-2-(pyrrolidin-1-yl) propanamide]	58.8 nM	940 nM	72 nM	73 nM	1030 nM	12 nM	442 nM									
Cn1cc(-c2ccc3cnc(NC(=O)[C@H]4CCCN4)cc3c2)cn1 [Compound 320, (R)—N-(6-(1-Methyl-1H-pyrazol-4-yl)isoquinolin-3-yl)pyrrolidine-2-carboxamide]	9.9 nM	1780 nM	280 nM	69 nM	1260 nM	10 nM	1140 nM									
